The Deep4Chem optical property database
Values belong to the molecule of their own block, whether it stands above or below them.

Assay: solvent given as SMILES

absorption maximum (in ClC(Cl)Cl): 611 nm
SMILES: CCCCCCc1cc(-c2ccc3c(c2)C2CCCC2N3c2ccc3c(c2)C(C)(C)c2ccccc2-3)sc1/C=C1\C(=O)c2ccc(C(=O)O)cc2C1=O (configuration not stated)

absorption maximum (in CN(C)C=O): 319 nm
SMILES: Cc1nc2cccc(-c3nc4ccccc4s3)c2c(=O)[nH]1

absorption maximum (in ClCCl): 436 nm
SMILES: O=c1c2cccc3cccc(c32)c2nc3c4ccccc4c4ccccc4c3n12

absorption maximum (in ClCCl): 518 nm
SMILES: Clc1nnc(O/N=C/c2ccc(N(c3ccccc3)c3ccccc3)cc2)nn1

absorption maximum (in ClCCl): 433 nm
SMILES: COCCOCCOCCOCC(COCCOCCOCCOC)Oc1cc(/C=C/c2ccc(/C=C(\C#N)c3ccccc3)cc2)c(OC(COCCOCCOCCOC)COCCOCCOCCOC)cc1/C=C/c1ccc(/C=C(\C#N)c2ccccc2)cc1

absorption maximum (in ClC(Cl)Cl): 344 nm
SMILES: FC(F)(F)c1ccc2oc3nc4oc5ccc(N6c7ccccc7Oc7ccccc76)cc5c4cc3c2c1

absorption maximum (in CCOC(C)=O): 428 nm
SMILES: CCN1CCN(c2ccc(/N=N/c3ccc(C#N)cc3)cc2)CC1

absorption maximum (in C1CCCCC1): 364 nm
SMILES: C1=Cc2ccc3ccccc3c2N(c2ccccc2)B1c1ccccc1

absorption maximum (in C1CCOC1): 341 nm
SMILES: c1ccc2c(c1)c1ccccc1n2-c1ccc(-c2ccc3nc(-c4ccc(-n5c6ccccc6c6ccccc65)cc4)nn3c2)cc1

absorption maximum (in ClC(Cl)Cl): 365 nm
SMILES: c1ccc2c3c(ccc2c1)C1(c2cc(-c4ccc5ccc6cccc7ccc4c5c67)ccc2-c2ccc(-c4ccc5ccc6cccc7ccc4c5c67)cc21)c1ccc2ccccc2c1O3

absorption maximum (in C1CCCCC1): 361 nm
absorption maximum (in CC#N): 375 nm
absorption maximum (in CCOC(C)=O): 372 nm
SMILES: COc1c(-c2ccc(N(C)C)cc2)oc2ccccc2c1=O

absorption maximum (in ClCCl): 512 nm
SMILES: CCCCCCOc1cc(C=C2C(=O)c3ccccc3C2=O)c(OCCCCCC)cc1C=C1C(=O)c2ccccc2C1=O

absorption maximum (in CCCCCC): 544 nm
SMILES: CC(C)[Si](C#Cc1c2ccccc2c(C#C[Si](C(C)C)(C(C)C)C(C)C)c2nc3c(ccc4ccccc43)nc12)(C(C)C)C(C)C

absorption maximum (in CCO): 369 nm
SMILES: O=c1c2cc(F)c(N3CCCCC3)cc2oc2cc(N3CCCCC3)c(F)cc12

absorption maximum (in ClC(Cl)Cl): 486 nm
SMILES: C(#Cc1cccs1)C(C#Cc1cccs1)=Cc1ccc(C=C(C#Cc2cccs2)C#Cc2cccs2)s1

absorption maximum (in CCCCCC): 362 nm
absorption maximum (in CCO): 362 nm
absorption maximum (in CCOC(C)=O): 362 nm
absorption maximum (in ClCCl): 365 nm
SMILES: Cc1ccc(C#Cc2ccc3ccc4cccc5ccc2c3c45)cc1

absorption maximum (in CCO): 436 nm
SMILES: CN1C(=Cc2c([O-])c(=O)/c2=N\C#N)C(C)(C)c2ccccc21

absorption maximum (in C1COCCO1): 336 nm
absorption maximum (in CC#N): 336 nm
absorption maximum (in CO): 340 nm
absorption maximum (in ClCCl): 343 nm
SMILES: COC(=O)CNC(=O)c1nc2c(N(C)C)nc(N(C)C)nc2n1Cc1ccccc1

absorption maximum (in CC#N): 562 nm
absorption maximum (in CCCCCC): 572 nm
absorption maximum (in CCOC(C)=O): 565 nm
absorption maximum (in CO): 562 nm
absorption maximum (in ClCCl): 568 nm
SMILES: CCc1c(C)c2n(c1C)[B-](F)(F)[N+]1=C(NCc3ccc(OC)cc3)C(SC#N)=CC1=C2C

absorption maximum (in ClCCl): 343 nm
SMILES: CC(C)(C)NC(=O)c1ccc(Br)c2ccc3c4ccccc4c4ccccc4c3c12

absorption maximum (in ClCCl): 454 nm
SMILES: CCCCN(CCCC)c1ccc(C#Cc2cc(C#Cc3ccc(C#N)cc3)c(C#Cc3ccc(N(CCCC)CCCC)cc3)cc2C#Cc2ccc(C#N)cc2)cc1

absorption maximum (in C1CCOC1): 362 nm
SMILES: N#Cc1c(N2CCCCC2)cc(-c2ccc3ccccc3c2)c2c1-c1ccccc1C2

Second part, the molecule before the results:

SMILES: CCN(CC)c1ccc2cc(-c3cc(SC)c(C#N)c(=O)o3)c(=O)oc2c1
absorption maximum (in C1CCOC1): 512 nm
absorption maximum (in CC#N): 514 nm
absorption maximum (in CC(C)=O): 514 nm
absorption maximum (in CCOC(C)=O): 509 nm
absorption maximum (in CN(C)C=O): 521 nm
absorption maximum (in CO): 514 nm
absorption maximum (in CS(C)=O): 527 nm
absorption maximum (in Cc1ccccc1): 509 nm
absorption maximum (in ClC(Cl)Cl): 517 nm
absorption maximum (in ClCCl): 520 nm

SMILES: CCC1(CC)c2cc(C=O)ccc2-c2ccc(N(C)C)cc21
absorption maximum (in C1CCCCC1): 385 nm
absorption maximum (in CC#N): 385 nm
absorption maximum (in CCO): 388 nm
absorption maximum (in CCOCC): 379 nm
absorption maximum (in CS(C)=O): 395 nm
absorption maximum (in ClCCl): 392 nm
absorption maximum (in c1ccccc1): 388 nm

SMILES: Cc1cc(-c2nc(-c3ccccc3)nc(-c3ccccc3)n2)ccc1N1c2ccccc2[Si](c2ccccc2)(c2ccccc2)c2ccccc21
absorption maximum (in Cc1ccccc1): 379.03 nm

SMILES: Cc1cn(C)c(=O)nc1-n1cncn1
absorption maximum (in O): 323 nm

SMILES: O=C1CCCC2=C1CC1=C(CCCC1=O)N2NC(=O)c1ccc(O)cc1
absorption maximum (in CC#N): 368 nm
absorption maximum (in CC(C)=O): 368 nm
absorption maximum (in CCCCCO): 376 nm
absorption maximum (in CO): 376 nm
absorption maximum (in ClC(Cl)Cl): 368 nm
absorption maximum (in ClCCl): 372 nm

SMILES: Cc1nc(-c2cc(F)ccc2O)n2c1CCCC2
absorption maximum (in ClCCl): 326 nm

SMILES: CC1(C)c2ccccc2N(c2ccc3nc4c5ccc(N6c7ccccc7C(C)(C)c7ccccc76)cc5c5cc(N6c7ccccc7C(C)(C)c7ccccc76)ccc5c4nc3c2)c2ccccc21
absorption maximum (in Cc1ccccc1): 456 nm

SMILES: O=C1/C(=C\c2ccc(N(c3ccccc3)c3ccccc3)cc2)S(=O)(=O)c2ccccc21
absorption maximum (in C1CCOC1): 473 nm
absorption maximum (in C1COCCO1): 475 nm
absorption maximum (in CC#N): 475 nm
absorption maximum (in CC(C)=O): 472 nm
absorption maximum (in CCOC(C)=O): 471 nm
absorption maximum (in CN(C)C=O): 478 nm
absorption maximum (in CO): 477 nm
absorption maximum (in CS(C)=O): 482 nm
absorption maximum (in Cc1ccccc1): 485 nm
absorption maximum (in ClC(Cl)Cl): 491 nm
absorption maximum (in ClCCl): 485 nm

SMILES: CCOC(=O)c1nn(-c2ccc(OC)cc2)nc1N1CCCC1
absorption maximum (in CC#N): 336 nm

SMILES: Cc1c(C)n2c(COC(=O)c3ccccc3O)c(C)c(=O)n2c1=O
absorption maximum (in CCO): 379 nm

SMILES: Cc1ccc(N2C(c3ccccc3NS(=O)(=O)c3ccc(C)cc3)=NC(c3ccccc3)C2c2ccccc2)cc1 (configuration not stated)
absorption maximum (in Cc1ccccc1): 300 nm

SMILES: CCCCCCOc1cc(/C=C/c2cc(OCCCCCC)c(/C=C/c3cc(OCCCCCC)c(C=C4C(=C(C#N)C#N)c5ccccc5C4=C(C#N)C#N)cc3OCCCCCC)cc2OCCCCCC)c(OCCCCCC)cc1C=C1C(=C(C#N)C#N)c2ccccc2C1=C(C#N)C#N
absorption maximum (in ClCCl): 640 nm

SMILES: CC(=O)c1c2c(c(C(C)=O)c3c1OC(CC(=O)O)O3)OCO2
absorption maximum (in CC#N): 433 nm

SMILES: CC1=CC(C)=[N+]2C1=C(c1ccc(C(=O)OC3C[C@@H]4CC[C@]3(C)C4(C)C)cc1)c1c(C)cc(C)n1[B-]2(F)F (some centres not stated)
absorption maximum (in Cc1ccccc1): 506 nm

SMILES: F[B-]1(F)OC(c2ccc3ccccc3c2)=CC(c2ccc3ccccc3c2)=[O+]1
absorption maximum (in CC#N): 419 nm
absorption maximum (in ClC(Cl)(Cl)Cl): 412 nm

SMILES: Cc1cc(=O)oc2c3c4c(cc12)CCCN4CCC3
absorption maximum (in C1CCCCC1): 361 nm
absorption maximum (in CC#N): 380 nm
absorption maximum (in CCO): 387 nm
absorption maximum (in O): 396 nm

SMILES: COc1ccc(C2=[N+]3C(=Nc4c(-c5cc(OC)c(OC)c(OC)c5Br)c(-c5ccc(C(C)(C)C)cc5)c(-c5ccc(OC)cc5)n4[B-]3(F)F)C(c3cc(OC)c(OC)c(OC)c3Br)=C2c2ccc(C(C)(C)C)cc2)cc1
absorption maximum (in Cc1ccccc1): 706 nm

SMILES: CC(C)(C)c1ccc2c(c1)c1cc(C(C)(C)C)ccc1n2-c1c(C#N)c(-n2c3ccc(C(C)(C)C)cc3c3cc(C(C)(C)C)ccc32)c(-n2c3ccc(C(C)(C)C)cc3c3cc(C(C)(C)C)ccc32)c(-n2c3ccc(C(C)(C)C)cc3c3cc(C(C)(C)C)ccc32)c1-n1c2ccc(C(C)(C)C)cc2c2cc(C(C)(C)C)ccc21
absorption maximum (in Cc1ccccc1): 427.95 nm

SMILES: CCCCCCCCc1ccc(-n2c3c(c4c2c2c(n4-c4ccc(CCCCCCCC)cc4)-c4ccccc4NB2c2ccccc2)B(c2ccccc2)Nc2ccccc2-3)cc1
absorption maximum (in Cc1ccccc1): 387 nm
